Assay results taken from ChEMBL document CHEMBL1154980, “Tetrapeptides possessing a unique skeleton, JBIR-34 and JBIR-35, isolated from a sponge-derived actinomycete, Streptomyces sp. Sp080513GE-23” (J Nat Prod, 2010).
pIC50: −log10 of the molar value. The source made the active and inactive calls. No cut-off for these calls is given here.

Key:
[1] = system: Radical scavenging activity; assay: Antioxidant activity assessed as DPPH radical scavenging activity after 1 hr; format: functional
Escherichia coli = assay: Antibacterial activity against Escherichia coli; format: functional, organism-based
Micrococcus luteus = assay: Antibacterial activity against Micrococcus luteus; format: functional, organism-based

pIC50 [1] | SMILES | Activity (Escherichia coli) | Activity (Micrococcus luteus)
2.60 | C[C@@H](NC(=O)[C@@]1(C)COC(c2cn(C)c3cc(Cl)cc(O)c23)=N1)C(=O)N[C@@H](CO)C(=O)O | inactive | inactive
4.30 | Cc1c(C)c2c(c(C)c1O)CC[C@@](C)(CCC[C@H](C)CCC[C@H](C)CCCC(C)C)O2 [ALPHA-TOCOPHEROL] | – | –
3.00 | Cc1c(Cl)cc2c(c(C3=N[C@@](C)(C(=O)N[C@H](C)C(=O)N[C@@H](CO)C(=O)O)CO3)cn2C)c1O | inactive | inactive
